According to patent publication US11147784B2, “Dietary supplements and composition for treating cancer” (The Trustees of Princeton University, priority 2013, dated 2021):
Where two headings read alike, the source gives them in different places.

Tests used:
NADPH/NADP+ ratio = experiment: Cellular effect of anti-folate therapy on the NADPH/NADP+ ratio; format: cell-based; conditions: methotrexate 500 nM
HEK293T cells [1] = experiment: U13C tracer labeling of the one-carbon unit pool; format: cell-based; conditions: 48 h, ADP purine ring and dTTP methyl labeling
Method: In order to determine contribution of the single carbon, cells were cultured with media containing [U ^13C] serine for 48 h, washed three times with cold PBS to remove extracellular serine, extracted, and the intracellular labeling pattern analyzed by LC-MS for ATP (representing purines; there is no labeling of ribose-phosphate based on LC-MS measurements), glycine and serine. See e.g., Fan et al., Nature 510: 298-302, 2014.
Purine ring labeling is indicative of formyl-THF labeling.

HEK293T cells [2] = conditions: 24 h, addition of glycine (5 mM)
Method: (§2) Metabolites were then harvested by quickly aspirating media, washing with PBS buffer, and immediately adding −80° C. 80:20 methanol: water extraction solution at −80° C. Following quenching, the tissue culture dish was incubated at −80° C. for 15 min, and then the cells were scraped from the plate. After centrifuging the cell suspension at 5300×g for 10 min, the supernatant was kept and the debris was re-extracted with −80° C. 80:20 methanol:water. The resulting suspension was centrifuged again and the supernatant was combined with first supernatant. […] LC separation was by reversed-phase ion-pairing chromatography with tributylamine as the ion-pairing agent. MS analysis was on a stand-alone orbitrap mass analyzer (Thermo Scientific) operated in negative ion mode and scanning from m/z 85-1000 at 1 Hz at 100,000 resolution. Data were analyzed using the MAVEN software suite. All observed LC-MS peaks were in analyzed, including those of roughly 100 known water-soluble metabolites.
HEK293T cells were cultured in the conditions described in Example 2. In addition to measuring metabolite concentrations, important metabolite ratios, e.g., NADH/NAD+, NADPH/NADP+, ATP/ADP, were calculated.

HEK293 cell = conditions: 3 days
Source text: (§1) It is hypothesized that high glycine is driving the backwards SHMT reaction while also impairing the forward reaction by product inhibition.

HEK293 cells = conditions: DMEM lacking serine, 3 days
Source text: as §1

HCT116 cells = conditions: HCT116 xenograft in CD-1-Foxn1nu female mice; high (2×-5× normal) glycine diets
Method: Approximately 3×10^6 HCT116 cells (or other tumor-forming transformed cells) are injected on the flank of approximately 8 week CD-1-Foxn1nu female mice (Charles River) or similar rodents. To compare cell lines or gather data more rapidly, different cell lines can be ejected on the 2 flanks (right and left) of each mouse. […] Numbers of mice are selected in order to obtain appropriate statistical power, with 6-20 mice per group typical.

tumor growth = conditions: patients; current best therapy plus glycine supplementation therapy
Source text: Individuals providing informed consent to enter the trial are randomized to the current best therapy or current best therapy plus glycine supplementation therapy arms.
The glycine supplementation therapy arm involves providing increased total intake of glycine and/or decreased total intake of serine so as to achieve an increased ratio of glycine to serine intake. The clinical course of patients enrolled in the trial is monitored with respect to endpoints selected based on the disease state, e.g., for stage IV lung cancer, changes in tumor volume, progression-free survival, and overall survival, as well as side effects of the treatment regimen.

HEK293T cells [3] = conditions: absence of exogenous serine, 0.4 mM glycine, or addition of 2 mM or 5 mM glycine
Method: Cell growth was measured in an incubator containing 5% CO2 at 37° C.

HEK293T cells [4] = conditions: 24 h, +5 mM glycine, DMEM with or without serine
Method: as §2

HEK293T cells [5] = test system: HEK293T cells
Method: To measure cellular folates, media was removed from HEK293T cells, and replaced with 50:50 methanol:water with 25 mM ammonium acetate and 1% sodium ascorbate, at −20° C. […] After 15 min on ice, the cells were scraped from the dish to further enhance extraction, and the cell-liquid mixture was centrifuged to remove particulate matter. The particulate matter was re-extracted with the same solvent for 15 minutes, and the 2 extracts were combined. The resulting combined extract was treated with rat serum to hydrolyze the polyglutamate chains of folate polyglutamates. […] The resulting mixture was passed through a phenyl solid phase extraction column which removes proteins, highly soluble metabolites, salts and further concentrates the folate species, which were then analyzed by in high resolution LC-MS.

ΔMTHFD2 cells = conditions: addition of formate to ΔMTHFD2 cells (from HEK293T)
Method: AICAR in wild type HEK293T cells and cells lacking a key enzyme producing formyl-THF, MTHFD2, was measured by LC-MS. See e.g., Fan et al., Nature 510: 298-302, 2014. […] The ΔMTHFD2 cells lacking MTHFD2 were produced from HEK293T cells by CRISPR (clustered regularly interspaced short palindromic repeat)-mediated knockout.

## CN(Cc1cnc2nc(N)nc(N)c2n1)c1ccc(C(=O)N[C@@H](CCC(=O)O)C(=O)O)cc1 [methotrexate]
NADPH/NADP+ ratio
  NADPH/NADP+ ratio: decrease

## N[C@@H](CO)C(=O)O [serine, reference compound]
HEK293T cells [1]
  contribution to the cellular one-carbon unit pool: contributes to the cellular one-carbon unit pool

## NCC(=O)O [glycine]
HEK293T cells [2]
  ATP/ADP ratio: significantly decreased
  decrease in the NADPH/NADP+ ratio: approximately 2 fold
HEK293 cell; DMEM lacking serine, 1× glycine
  decrease in final cell number relative to growth in complete DMEM: approximately 30%
HEK293 cell; serine removal and addition of 12× glycine
  decrease in final cell number relative to growth in complete DMEM: approximately 70%
HEK293 cells; 1× glycine, complete DMEM approximately 1
  Relative NADPH/NADP+: approximately 0.7
HEK293 cells; addition of 12× glycine
  Relative NADPH/NADP+: approximately 0.45
HCT116 cells
  tumor growth and tumor progression: will reduce tumor growth and slow tumor progression
Tumor growth
  tumor growth and tumor progression: will reduce tumor growth and slow tumor progression
HEK293T cells [3]
  transformed cell growth: inhibits transformed cell growth
HEK293T cells [4]
  intracellular serine levels: enhanced
HEK293T cells [5]; glycine addition
  AICAR: rise
HEK293T cells [5]; presence of glycine when serine is absent, 1× and 10× relative to standard DMEM
  Formyl-THF and methyl-THF levels: decrease
HEK293T cells [1]
  contribution to the cellular one-carbon unit pool: does not contribute one carbon units

## O=CO [formate]
ΔMTHFD2 cells
  AICAR accumulation: eliminates the AICAR accumulation
